Results as given in US20110008302A1, “Compositions and methods for immortalizing cells and screening for anti-cancer agents” (priority 2007, published 2011).

Key:
[1] = tested on: Ndy1; experiment: siRNA knock down in MEFs (Western blot, real time PCR of p16Ink4a, p19Arf, Ezh2, miR-101); assay type: cell-based, mouse; details: passage 3 MEFs, knock down of the short form of Ndy1
Experimental: At a time point four days after transfection cells were analyzed by Western blotting and total mRNA was collected and analyzed by real-time PCR with primers specific for p16^Ink4a and p19^Arf and primers specific for the long and short forms of Ndy1. (n=3)*p<0.05
MEFs overexpressing Ndy1 or Ndy2 and MEFs in which Ndy1 was knocked down with siRNA (1433-[…]-1454, SEQ ID NO: 1), were monitored for senescence by light microscopy and β-galactosidase staining and by cell counting at each passage. Transfection of siRNA was carried out using Lipofectamine 2000 (Invitrogen; Carlsbad, Calif.). Knockdown of Ndy1 was confirmed by Western blotting and real time RTPCR.
For siRNA. MEFs transfected with Ndy1 (1433-[…]-1454; SEQ ID NO: 51) or control siRNA (Dharmacon) were plated at 10^5 cells per 6 cm dish and 3-4 days later were harvested and analyzed (Pfau, R., et al. (2008) Proc Natl Acad Sci USA 105, 1907-12, incorporated herein by reference in its entirety). MEFs were transfected with the help of Lipofectamine 2000 (Invitrogen). To specifically knock down the short form of Ndy1 the following siRNA were used: 5′-[…]-′3 (SEQ ID NO: 52) which specifically targets the exon1 of the v2 isoform of Ndy1 (NM_013910). siRNAs for Ezh2 (a mix of two siRNAs form Applied Biosystems, #AM16708 siID #157427 and #157426) and Bmi-1 (Santa Cruz Biotechnologies, # sc-29815) were used in a final concentration of 80 nM.

[2] = tested on: MEFs; experiment: Oxidant/antioxidant treatment of MEFs, Ezh2 Western blot; assay type: cell-based, mouse; details: NAC 5 mM, Trolox 1 mM, H2O2 0.5 or 1 mM
Experimental: MEFs were treated with NAC (5 mM), Trolox (1 mM) or H2O2 (0.5 or 1 mM). Nuclear extracts were probed with antibodies specific for Ezh2 and for CREB, levels of which served as loading control.
(§1) TROLOX ((±)-6-Hydroxy-2,5,7,8-tetramethylchromane-2-carboxylic acid, (Sigma, catalog number 238813), NAC (N-Acetyl-L-cysteine, Sigma, catalog number A9165), H2O2 (Sigma, catalog number H-1009) and PD173074 (N-[2-[[4-(Diethylamino)butyl]amino]-6-(3,5-dimethoxyphenyl)pyrido[2,3-d]pyrimidin-7-yl]-N′-(1,1-dimethylethyl) urea, FGFR-1/3 inhibitor, TOCRIS Bioscience, catalog number 3044) were added directly in the culture at the indicated concentrations.

[3] = tested on: WIDR cells; experiment: PD173074 treatment of WIDR cells (Western blot, real time RT-PCR); assay type: cell-based, human
Experimental: (§2) WIDR cell were treated with 0.5 μM PD173074 or carrier for 24 hours. (upper) Nuclear and cytoplasmic extracts were probed with antibodies specific for each of Ndy1, Ezh2 and phosphoERK antibodies. CREB and ERK levels served as loading controls. (lower) miR-101 levels were measured with real time RT-PCR; U6 small nuclear RNA levels were used as internal control. Data are expressed as mean±SD.
WIDR cells were transduced with an HA.Ndy1 overexpression construct or the empty vector (EV), and were subsequently treated with 0.5 μM PD173074 or carrier for 24 hours. (upper) Nuclear extracts were probed with antibodies specific for each of with HA-tag (exogenous Ndy1), Ndy1 (both endogenous and exogenous Ndy1) and Ezh2. CREB levels served as loading controls. (lower) miR-101 levels were measured with real time RT-PCR; U6 small nuclear RNA levels were used as internal controls. Data are expressed as mean±SD.
as §1
(§3) As a next step, FGF signaling was examined to determine importance for Ezh2 upregulation by Ndy1 in these cells. To address this issue, TCCSUP or WIDR cells, two of the above five cell lines, were treated with PD173074, an inhibitor of both FGFR1 and both FGFR3.
(§4) To examine if ectopic expression of Ndy1 reverses the effects of PD173074, namely miR-101 upregulation and Ezh2 downregulation, TCCSUP or WIDR cells were transduced with a pBabe-based retroviral Ndy1 overexpression construct. Cells transduced with the empty pBabe vector were used as control. The engineered cells were subsequently treated with PD173074. Nuclear lysates from these cells were probed with antibodies specific for each of HA-tag (exogenous Ndy1), Ndy1 (both exogenous and endogenous), Ezh2, and CREB. RNA isolated from the same cells was used to measure miR-101 levels with real time RT-PCR.

[4] = tested on: TCCSUP cells; experiment: PD173074 treatment of TCCSUP cells (Western blot, real time RT-PCR); assay type: cell-based, human
Experimental: as §2, with “TCCSUP cells” for “WIDR cell”, “phosphoERK.” for “phosphoERK antibodies.”
TCCSUP cells were transduced with an HA.Ndy1 overexpression construct or with the empty vector (EV), and were subsequently treated with 0.5 μM PD173074 or carrier for 24 hours. (upper) Nuclear extracts were probed with antibodies specific for each of HA-tag (exogenous Ndy1), Ndy1 (both endogenous and exogenous Ndy1) and Ezh2. CREB levels served as loading control. (lower) miR-101 levels were measured with real time RT-PCR; U6 small nuclear RNA levels were used as internal control. Data are expressed as mean±SD.
as §1, §3, §4

[5] = tested on: MEFs; experiment: Stimulation of serum-starved MEFs with growth factors or serum (Ezh2, Ndy1, miR-101 levels); assay type: cell-based, mouse; details: serum-starved MEFs, 24 hours after stimulation; for Ezh2 expression: 20 ng/ml (serum 10%)
Experimental: MEFs were transfected with control siRNA and stimulated with serum (10%) for 1, 4, 12 and 18 hours. (upper) Nuclear extracts were probed with antibody specific for Ezh2 and for CREB, levels of which served as loading control. (lower) Ndy1 and Ezh2 mRNA levels were measured with real time RT-PCR; GAPDH mRNA levels were used as internal control. Data are expressed as mean±SD.
Serum starved MEFs were stimulated with each of FGF-2 (20 ng/ml), IGF-1 (20 ng/ml), PDGF (20 ng/ml), serum (10%), VEGF (20 ng/ml), EGF (20 ng/ml) or TNFα (50 ng/ml). Nuclear extracts were probed with antibody specific for Ezh2 and for CREB, levels of which served as loading control.
Data are expressed as mean±SD.
MEFs transfected with control siRNA were stimulated with FGF-2 for 1, 4, 12 or 18 hours. (upper) Nuclear extracts were probed with antibody specific for Ezh2. CREB levels served as loading control. (middle) Ndy1 and Ezh2 mRNA were measured with real time RT-PCR; GAPDH mRNA levels were used as internal control. Data are expressed as mean±SD. (lower) miR-101 levels were measured with real time RT-PCR; U6 small nuclear RNA levels were used as internal control. Data are expressed as mean±SD.
For stimulation with FGF-2 (Cell signalling, catalog number 8910), IGF-1 (R&D Systems, catalog number 791-MG), PDGF (Cell signalling, catalog number 9909), VEGF (R&D systems, catalog number 493-MV), EGF (R&D systems, catalog number 236-EG), TNFα (Cell Signalling, catalog number 2169), cells were serum starved for 16 hours and growth factors were added at a final concentration of 20 ng/ml each, for 24 hours.
To identify a pathway regulating Ezh2 expression via the Ndy1/miR-101 axis, serum-starved MEFs were stimulated with FGF-2, IGF-1, PDGF, EGF, VEGF, TNFα or serum and were examined for expression of Ezh2, Ndy1 and miR-101 before and 24 hours after stimulation. […] This was confirmed with analyses in which FGF-2 was used to stimulate serum-starved MEFs transfected with a control siRNA or siRNA for Ndy1 (FIG. 36).

[6] = WIDR cells overexpressing HA.Ndy1, 0.5 μM, 24 hours
[7] = TCCSUP cells overexpressing HA.Ndy1, 0.5 μM, 24 hours

“5′-CCGAGGACGACGACUAUGAUU-′3 [Ndy1 short form siRNA]” was tested, and the p16Ink4a [1] was “did not upregulate significantly” and the p19Arf [1] was “did not upregulate significantly”.

Cc1c(C)c2c(c(C)c1O)CCC(C)(C(=O)O)O2 (racemic) [Trolox, (±)-6-Hydroxy-2,5,7,8-tetramethylchromane-2-carboxylic acid] was tested, and the Ezh2 protein levels [2] was “no effect”.

OO [H2O2] was tested, and the Ezh2 protein levels [2] was “no effect”.

For CC(=O)N[C@@H](CS)C(=O)O [NAC, N-Acetyl-L-cysteine], the Ezh2 protein levels [2] was “no effect”.

In the case of CCN(CC)CCCCNc1ncc2cc(-c3cc(OC)cc(OC)c3)c(NC(=O)NC(C)(C)C)nc2n1 [PD173074, N-[2-[[4-(Diethylamino)butyl]amino]-6-(3,5-dimethoxyphenyl)pyrido[2,3-d]pyrimidin-7-yl]-N′-(1,1-dimethylethyl) urea], the “FGF signaling (level of ERK1/2 phosphorylation)” value ([3]; WIDR cells) is reported as “blocked”, the “effect on Ezh2” value [3, 6] is reported as “abrogated” and the “effect on miR-101” value [3, 6] is reported as “abrogated”. The Ezh2 protein level ([3]; WIDR cells, 0.5 μM, 24 hours) was “downregulates”, the Ndy1 protein level ([3]; WIDR cells, 0.5 μM, 24 hours) was “downregulates” and the miR-101 levels ([3]; WIDR cells, 0.5 μM, 24 hours) was “upregulates”. The “FGF signaling (level of ERK1/2 phosphorylation)” value ([4]; TCCSUP cells) was “blocked”, the “effect on Ezh2” value [4, 7] was “abrogated” and the “effect on miR-101” value [4, 7] was “abrogated”. The Ezh2 protein level ([4]; TCCSUP cells, 0.5 μM, 24 hours) was “downregulates”, the Ndy1 protein level ([4]; TCCSUP cells, 0.5 μM, 24 hours) was “downregulates” and the miR-101 levels ([4]; TCCSUP cells, 0.5 μM, 24 hours) was “upregulates”.

IGF-1: growth factor, R&D Systems was tested, and the “level at which Ezh2 expression is induced” value [5] was “at both the RNA and protein levels” and the Ezh2 expression [5] was “significantly upregulated”.

For PDGF, the “level at which Ezh2 expression is induced” value [5] was “at both the RNA and protein levels” and the Ezh2 expression [5] was “significantly upregulated”.

For VEGF, the “expression of Ndy1” value [5] was “only moderate”, the “level at which Ezh2 expression is induced” value [5] was “primarily at the protein level” and the miR-101 [5] was “downregulating”. The Ezh2 expression [5] was “significantly upregulated”.
